Where two headings read alike, the source gives them in different places.
Key:
[1] = Apple, literature values; cited from earlier work
[2] = Literature oral absorption of apple procyanidins (J. Agric. Food Chem., 54, 884-892, 2006); assay type: in vivo, rats; details: worked out from literature values, A in mg/kg
Source text: Studies on oral absorbability of various kinds of proanthocyanidins have reported that oligomers with a low degree of polymerization are efficiently orally absorbed (see R. R. Holt, S. A. Lazarus, M. C. Sullards, Q. Y. Zhu, D. D. Schramm, J. F. Hammerstone, C. G. Fraga, H. H. Schmitz and C. L. Keen, Procyanidin dimer B2 [epicatechin-(4β-8)-epicatechin] in human plasma after the consumption of a flavanol-rich cocoa. Am. J. Clin. Nutr. 2002, 76, p. 798-804. T. Shoji, S. Masumoto, N. Moriichi, H. Akiyama, T. Kanda, Y. Ohtake, Y. Goda. Apple procyanidin oligomers absorption in rats after oral administration: Analysis of procyanidins in plasma using the porter method and High-Performance Liquid Chromatography/Tandem Mass Spectrometry. J. Agric. Food Chem. 2006, 54, p. 884-892).

[3] = Oral absorbability evaluation test of proanthocyanidins extracted from Boysenberry seed (LC/MS/MS of blood plasma); assay type: in vivo, Wistar rats; details: Boysenberry seed (present invention); for B/A (blood concentration after 2 hours / administration quantity): A in mg/kg, B in μg/mL; for Blood concentration after 2 hours B: partitioned concentrate of seed extract 1000 mg/kg oral, Wistar rats, plasma
Experimental: The test animal used was Wistar rats (males, aged 9 weeks, with initial weight of 190 to 210 g, obtained from Japan SLC, Inc.). After fasting for 12 hours, the Wister rats were forcefully orally administered each 1000 mg/kg of the partitioned concentrate of seed extract or the partitioned concentrate of thermally-treated seed extract obtained in Example 1. Then, every 1, 2, 4, and 6 hours after the administration, the rats were killed to collect the whole blood. Each whole blood was centrifuged for 10 minutes at 4° C. at 2,000×g to obtain blood plasma as a supernatant. To 1 mL of each blood plasma were added 30 μL of 50% formic acid and 100 μL of 10 mM ascorbic acid solution to mix together, and to 1 mL of the mixed blood plasma solution were added 50 μL of (1 μg of) a catechol solution as an internal standard reagent and 30 μL of phosphoric acid to prepare each sample for analysis. Regarding the samples, measurements of a procyanidin dimer, a propelargonidin dimer, a procyanidin trimer, and a propelargonidin trimer were carried out at molecular weights of 577/289, 561/289, 865/289, and 849/289, using a liquid chromatography-mass spectrometry (LC/MS) (Shimadzu Prominence UFLC manufactured by Shimadzu Corp.; with ODS column; gradient elution with formic acid, methanol, and water) and MS/MS (API 3200 manufactured by Applied Biosystems Co. Ltd., negative-ion mode) to determine the quantities of the proanthocyanidins in the blood plasma. […] Additionally, FIG. 5 and Table 3 show LC/MS charts of the measurements of proanthocyanidin dimer and trimer components in the blood plasma after 2 hours of the administration of the partitioned concentrate of seed extract.

SMILES	B/A (blood concentration after 2 hours / administration quantity) [2]	B/A (blood concentration after 2 hours / administration quantity) [3]	Blood concentration after 2 hours B [3] [ng/mL]	Blood concentration after 2 hours B [1] [ng/mL]
Oc1cc(O)c2c(c1)O[C@H](c1ccc(O)c(O)c1)[C@H](O)[C@H]2c1c(O)cc(O)c2c1O[C@H](c1ccc(O)c(O)c1)[C@@H](O)C2 [PC dimer B1]	2.4 (×10^−6) (kg/ml)			120
Oc1cc(O)c2c(c1)O[C@H](c1ccc(O)c(O)c1)[C@@H](O)[C@@H]2c1c(O)cc(O)c2c1O[C@H](c1ccc(O)c(O)c1)[C@@H](O)C2 [PC dimer B3, Procyanidin B3]		30.0 (×10^−6) (kg/ml)	120	
Oc1cc(O)c2c(c1)O[C@H](c1ccc(O)c(O)c1)[C@H](O)[C@H]2c1c(O)cc(O)c2c1O[C@H](c1ccc(O)c(O)c1)[C@H](O)C2 [PC dimer B2, epicatechin-(4β-8)-epicatechin]	2.5 (×10^−6) (kg/ml)			230

Second part, led by results:

B/A (blood concentration after 2 hours / administration quantity) [2]	B/A (blood concentration after 2 hours / administration quantity) [3]	Blood concentration after 2 hours B [3] [ng/mL]	SMILES	Blood concentration after 2 hours B [1] [ng/mL]
1.9 (×10^−6) (kg/ml)	25.0 (×10^−6) (kg/ml)	200	Oc1cc(O)c2c(c1)O[C@H](c1ccc(O)c(O)c1)[C@H](O)[C@H]2c1c(O)cc(O)c2c1O[C@H](c1ccc(O)c(O)c1)[C@H](O)[C@H]2c1c(O)cc(O)c2c1O[C@H](c1ccc(O)c(O)c1)[C@H](O)C2 [PC trimer C1]	120
	32.9 (×10^−6) (kg/ml)	560	Oc1cc(O)c2c(c1)O[C@H](c1ccc(O)c(O)c1)[C@@H](O)[C@@H]2c1c(O)cc(O)c2c1O[C@H](c1ccc(O)c(O)c1)[C@H](O)C2 [PC dimer B4, Procyanidin B4]	
